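48-hour exposure; five concentrations; linearly interpolated endpoints. Here, GI50 denotes the concentration required for 50% inhibition of growth.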 Active and inactive are the calls of the source. No stated cut-off is given here; in the data, active = GI50 up to about 1.1 µM and inactive = higher.

Among the test systems are T47D; UACC-62; M19-MEL; SNB-75; CAKI-1; SF-539; DU-145; HCT-116; OVCAR-5; UACC-257; HOP-62; ACHN; A549; NCI-H23; Hs-578T; Malme-3M; UO-31; NCI-H522; NCI/ADR-RES; SW-620.
Common to all, as to assay: NCI-60 cell line screen, 48 h

For the molecule `CCCCCCCCCCCCCC(=O)OC(/C=C/C(C)C)C(O)C(O)C(OC)C(=O)NC1CCCCN(C)C1=O` (centres undefined), the GI50 in the test on T47D is > 10000 nM (inactive); in the test on UACC-62, 3210 nM (inactive); with M19-MEL it was 3480 nM (inactive); in the test on SNB-75, 7940 nM (inactive); in the test on CAKI-1 it was 1190 nM (inactive); with SF-539, 3620 nM (inactive). The GI50 in the test on DU-145 is > 10000 nM (inactive); in the test with HCT-116 it was 927 nM (active); with OVCAR-5, 4360 nM (inactive); in the test with UACC-257 it was 4840 nM (inactive); in the test on HOP-62, 3150 nM (inactive); in the test on ACHN, 4310 nM (inactive). In addition, the GI50 in the test on A549 was 575 nM (active); in the test with NCI-H23 it was 9910 nM (inactive); in the test on Hs-578T it was > 10000 nM (inactive); with Malme-3M, 2110 nM (inactive); with UO-31, 1340 nM (inactive); in the test with NCI-H522 it was 8730 nM (inactive). Besides, the GI50 in the test on NCI/ADR-RES is > 10000 nM (inactive); with SW-620 it was 1360 nM (inactive).

For the molecule `COC1=CC(=O)c2c(O)c3c(c(O)c2C1=O)C=C(C)OC3O` (centres undefined), the GI50 in the test with T47D is 2130 nM (inactive); in the test on UACC-62, 859 nM (active); in the test on M19-MEL, 224 nM (active); with SNB-75, 1570 nM (inactive); with CAKI-1, 3520 nM (inactive); in the test on SF-539, 1580 nM (inactive). The GI50 is 1010 nM (active) in the test on DU-145; 569 nM (active) in the test with HCT-116; 2430 nM (inactive) with OVCAR-5; 240 nM (active) with UACC-257; 2880 nM (inactive) in the test on HOP-62; 2100 nM (inactive) in the test with ACHN. In addition, the GI50 with A549 is 1420 nM (inactive); with NCI-H23 it was 838 nM (active); in the test with Hs-578T it was 2640 nM (inactive); in the test on Malme-3M it was 277 nM (active); with UO-31 it was 4040 nM (inactive); in the test with NCI-H522 it was 1450 nM (inactive). Also, the GI50 is 1510 nM (inactive) in the test on NCI/ADR-RES and 828 nM (active) in the test on SW-620.

`COc1cc(NCc2ccc3nc(N)nc(N)c3c2C)cc(OC)c1OC`: the GI50 with T47D was 65.8 nM (active); in the test on UACC-62, 25 nM (active); in the test with M19-MEL it was 326 nM (active); with SNB-75, 4370 nM (inactive); with CAKI-1, 194 nM (active); in the test with SF-539, 26.9 nM (active). The GI50 in the test with DU-145 is 1.02 nM (active); in the test on HCT-116, 35.2 nM (active); with OVCAR-5, 1850 nM (inactive); with UACC-257, 140 nM (active); in the test with HOP-62, 28.6 nM (active); in the test on ACHN, 0.395 nM (active). Besides, the GI50 in the test on A549 was 40.7 nM (active); in the test on NCI-H23 it was 45.3 nM (active); in the test with Hs-578T, 99.3 nM (active); in the test with Malme-3M it was 1550 nM (inactive); with UO-31, 1050 nM (active); in the test on NCI/ADR-RES it was 2740 nM (inactive). Further, the GI50 with SW-620 was 25 nM (active).

The record behind these values is ChEMBL document CHEMBL1201862, “PubChem BioAssay data set” (2004).
